#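 Step 1: Grow cells in 96-well plates. Step 2: Expose to compound for 48 hours at 5 concentrations. Step 3: Interpolate endpoints linearly; if unreached, use highest concentration. At the GI50, growth is halved.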 Activity calls are given as the source filed them. No stated cut-off is given here; in the data, active = GI50 up to about 1.1 µM and inactive = higher.
# How the values were obtained:
# Test in all cases: DTP human tumour cell line panel, 48 h
# SNB-75 = tested on: SNB-75
# HCT-116 = tested on: HCT-116
# EKVX = tested on: EKVX
# DU-145 = tested on: DU-145
# HCC 2998 = tested on: HCC 2998
# KM12 = tested on: KM12
# SK-MEL-28 = tested on: SK-MEL-28
# HCT-15 = tested on: HCT-15
# SF-295 = tested on: SF-295
# HOP-62 = tested on: HOP-62
# NCI-H460 = tested on: NCI-H460
# UACC-62 = tested on: UACC-62
# NCI/ADR-RES = tested on: NCI/ADR-RES
# RXF 393 = tested on: RXF 393
# Hs-578T = tested on: Hs-578T
# MDA-N = tested on: MDA-N
# HOP-92 = tested on: HOP-92
# PC-3 = tested on: PC-3
# M14 = tested on: M14
# SK-MEL-2 = tested on: SK-MEL-2
# OVCAR-4 = tested on: OVCAR-4
# NCI-H23 = tested on: NCI-H23
# OVCAR-3 = tested on: OVCAR-3
# LOX IMVI = tested on: LOX IMVI
# K562 = tested on: K562
# SN12C = tested on: SN12C
# HL-60 = tested on: HL-60
# SF-268 = tested on: SF-268
# U-251 = tested on: U-251
# CAKI-1 = tested on: CAKI-1
# OVCAR-8 = tested on: OVCAR-8
# NCI-H226 = tested on: NCI-H226
# HT-29 = tested on: HT-29
# A549 = tested on: A549
# SW-620 = tested on: SW-620
# BT-549 = tested on: BT-549
# MDA-MB-435 = tested on: MDA-MB-435
# COLO 205 = tested on: COLO 205
# A498 = tested on: A498
# T47D = tested on: T47D
# UO-31 = tested on: UO-31
# ACHN = tested on: ACHN
# MDA-MB-231 = tested on: MDA-MB-231
# 786-0 = tested on: 786-0
# SK-OV-3 = tested on: SK-OV-3
# UACC-257 = tested on: UACC-257
# Malme-3M = tested on: Malme-3M
# TK-10 = tested on: TK-10
# SNB-19 = tested on: SNB-19
# OVCAR-5 = tested on: OVCAR-5
# NCI-H522 = tested on: NCI-H522
# RPMI-8226 = tested on: RPMI-8226
# SK-MEL-5 = tested on: SK-MEL-5
# SR = tested on: SR
# IGROV-1 = tested on: IGROV-1
# MCF7 = tested on: MCF7
# SF-539 = tested on: SF-539
# CCRF-CEM = tested on: CCRF-CEM
# MOLT-4 = tested on: MOLT-4
smiles,measurement,setting,value
CCN(CC)C(=S)SS(=O)(=O)c1ccc(NC(C)=O)cc1,GI50,SNB-75,25.4 µM (inactive)
same,GI50,HCT-116,16 µM (inactive)
same,GI50,EKVX,44.5 µM (inactive)
same,GI50,DU-145,22.6 µM (inactive)
same,GI50,HCC 2998,31.6 µM (inactive)
same,GI50,KM12,55.8 µM (inactive)
same,GI50,SK-MEL-28,17.3 µM (inactive)
same,GI50,HCT-15,30.9 µM
same,GI50,SF-295,28.2 µM (inactive)
same,GI50,HOP-62,18.1 µM (inactive)
same,GI50,NCI-H460,26.2 µM (inactive)
same,GI50,UACC-62,19.9 µM (inactive)
same,GI50,NCI/ADR-RES,28 µM (inactive)
same,GI50,RXF 393,15.2 µM (inactive)
same,GI50,Hs-578T,45 µM (inactive)
same,GI50,MDA-N,27.6 µM (inactive)
same,GI50,HOP-92,19.8 µM (inactive)
same,GI50,PC-3,27.1 µM (inactive)
same,GI50,M14,17.1 µM (inactive)
same,GI50,SK-MEL-2,41.7 µM (inactive)
same,GI50,OVCAR-4,20.4 µM (inactive)
same,GI50,NCI-H23,24 µM (inactive)
same,GI50,OVCAR-3,31.7 µM (inactive)
same,GI50,LOX IMVI,15.9 µM (inactive)
same,GI50,K562,33.9 µM (inactive)
same,GI50,SN12C,18.2 µM (inactive)
same,GI50,HL-60,23.9 µM (inactive)
same,GI50,SF-268,28.9 µM (inactive)
same,GI50,U-251,18 µM (inactive)
same,GI50,CAKI-1,18.8 µM (inactive)
same,GI50,OVCAR-8,15.7 µM (inactive)
same,GI50,NCI-H226,> 59.7 µM (inactive)
same,GI50,HT-29,24.8 µM (inactive)
same,GI50,A549,2.21 µM (inactive)
same,GI50,SW-620,16.7 µM (inactive)
same,GI50,BT-549,39.3 µM (inactive)
same,GI50,MDA-MB-435,17.1 µM (inactive)
same,GI50,COLO 205,25.6 µM (inactive)
same,GI50,A498,> 55.6 µM (inactive)
same,GI50,T47D,24.9 µM (inactive)
same,GI50,UO-31,19.5 µM (inactive)
same,GI50,ACHN,36.1 µM (inactive)
same,GI50,MDA-MB-231,17 µM (inactive)
same,GI50,786-0,17.5 µM (inactive)
same,GI50,SK-OV-3,40.5 µM (inactive)
same,GI50,UACC-257,21.8 µM (inactive)
same,GI50,Malme-3M,15.9 µM (inactive)
same,GI50,TK-10,32.6 µM (inactive)
same,GI50,SNB-19,38.1 µM (inactive)
same,GI50,OVCAR-5,24.5 µM (inactive)
same,GI50,NCI-H522,< 0.0213 µM (active)
same,GI50,RPMI-8226,18.5 µM (inactive)
same,GI50,SK-MEL-5,0.778 µM (active)
same,GI50,SR,0.0226 µM (active)
COCN1C(=O)[C@@H]2CCCN2C(=O)c2cc(OC)c(Cc3ccccc3)cc21,GI50,SNB-75,60.4 µM (inactive)
same,GI50,HCT-116,62.4 µM (inactive)
same,GI50,EKVX,> 100 µM (inactive)
same,GI50,DU-145,> 100 µM (inactive)
same,GI50,KM12,> 100 µM (inactive)
same,GI50,SK-MEL-28,> 100 µM (inactive)
same,GI50,HCT-15,> 100 µM
same,GI50,SF-295,> 100 µM (inactive)
same,GI50,HOP-62,> 100 µM (inactive)
same,GI50,UACC-62,> 100 µM (inactive)
same,GI50,NCI/ADR-RES,> 100 µM (inactive)
same,GI50,RXF 393,34.3 µM (inactive)
same,GI50,Hs-578T,> 100 µM (inactive)
same,GI50,MDA-N,> 100 µM (inactive)
same,GI50,PC-3,74.5 µM (inactive)
same,GI50,IGROV-1,62.7 µM (inactive)
same,GI50,M14,> 100 µM (inactive)
same,GI50,SK-MEL-2,> 100 µM (inactive)
same,GI50,OVCAR-4,43.7 µM (inactive)
same,GI50,NCI-H23,> 100 µM (inactive)
same,GI50,LOX IMVI,> 100 µM (inactive)
same,GI50,SN12C,> 100 µM (inactive)
same,GI50,SF-268,> 100 µM (inactive)
same,GI50,U-251,94.6 µM (inactive)
same,GI50,CAKI-1,> 100 µM (inactive)
same,GI50,OVCAR-8,> 100 µM (inactive)
same,GI50,HT-29,93.3 µM (inactive)
same,GI50,A549,83.6 µM (inactive)
same,GI50,SW-620,> 100 µM (inactive)
same,GI50,BT-549,81.8 µM (inactive)
same,GI50,MDA-MB-435,70.1 µM (inactive)
same,GI50,MCF7,61.5 µM (inactive)
same,GI50,A498,> 100 µM (inactive)
same,GI50,T47D,43.3 µM (inactive)
same,GI50,UO-31,57 µM (inactive)
same,GI50,ACHN,> 100 µM (inactive)
same,GI50,MDA-MB-231,49.5 µM (inactive)
same,GI50,SF-539,> 100 µM (inactive)
same,GI50,786-0,> 100 µM (inactive)
same,GI50,SK-OV-3,> 100 µM (inactive)
same,GI50,UACC-257,> 100 µM (inactive)
same,GI50,Malme-3M,> 100 µM (inactive)
same,GI50,TK-10,> 100 µM (inactive)
same,GI50,SNB-19,> 100 µM (inactive)
same,GI50,OVCAR-5,> 100 µM (inactive)
same,GI50,NCI-H522,83.9 µM (inactive)
N#Cc1c(-c2ccccc2)cc(-c2ccccc2)n(C2OCC(O)C(O)C2O)c1=S (stereo not given),GI50,SNB-75,24.9 µM (inactive)
same,GI50,HCT-116,14.7 µM (inactive)
same,GI50,EKVX,36.2 µM (inactive)
same,GI50,DU-145,19.7 µM (inactive)
same,GI50,KM12,12.9 µM (inactive)
same,GI50,SK-MEL-28,26.6 µM (inactive)
same,GI50,HCT-15,25.4 µM
same,GI50,SF-295,18.5 µM (inactive)
same,GI50,HOP-62,25.6 µM (inactive)
same,GI50,NCI-H460,15.4 µM (inactive)
same,GI50,UACC-62,1.66 µM (inactive)
same,GI50,CCRF-CEM,16.4 µM (inactive)
same,GI50,NCI/ADR-RES,32.4 µM (inactive)
same,GI50,RXF 393,18.4 µM (inactive)
same,GI50,Hs-578T,29.6 µM (inactive)
same,GI50,MDA-N,17.3 µM (inactive)
same,GI50,PC-3,14.6 µM (inactive)
same,GI50,IGROV-1,17.7 µM (inactive)
same,GI50,M14,27.2 µM (inactive)
same,GI50,SK-MEL-2,25.4 µM (inactive)
same,GI50,OVCAR-4,24.5 µM (inactive)
same,GI50,NCI-H23,21.3 µM (inactive)
same,GI50,OVCAR-3,22.3 µM (inactive)
same,GI50,MOLT-4,16.7 µM (inactive)
same,GI50,LOX IMVI,18.1 µM (inactive)
same,GI50,K562,39 µM (inactive)
same,GI50,SN12C,> 10 µM (inactive)
same,GI50,SF-268,23.4 µM (inactive)
same,GI50,U-251,15.3 µM (inactive)
same,GI50,CAKI-1,32.5 µM (inactive)
same,GI50,OVCAR-8,20.8 µM (inactive)
same,GI50,NCI-H226,16.9 µM (inactive)
same,GI50,HT-29,23 µM (inactive)
same,GI50,A549,22.8 µM (inactive)
same,GI50,SW-620,16.5 µM (inactive)
same,GI50,BT-549,16.6 µM (inactive)
same,GI50,MDA-MB-435,19 µM (inactive)
same,GI50,MCF7,20.1 µM (inactive)
same,GI50,COLO 205,20.1 µM (inactive)
same,GI50,A498,19.7 µM (inactive)
same,GI50,T47D,4.42 µM (inactive)
same,GI50,UO-31,19 µM (inactive)
same,GI50,ACHN,18.3 µM (inactive)
same,GI50,MDA-MB-231,0.946 µM (active)
same,GI50,SF-539,22.2 µM (inactive)
same,GI50,786-0,25.7 µM (inactive)
same,GI50,SK-OV-3,11.7 µM (inactive)
same,GI50,UACC-257,33.3 µM (inactive)
same,GI50,Malme-3M,30.7 µM (inactive)
same,GI50,TK-10,27.9 µM (inactive)
same,GI50,SNB-19,26.6 µM (inactive)
same,GI50,OVCAR-5,24.8 µM (inactive)
same,GI50,NCI-H522,18.2 µM (inactive)
same,GI50,RPMI-8226,10.4 µM (inactive)
same,GI50,SK-MEL-5,14.7 µM (inactive)

# From ChEMBL document CHEMBL1201862, “PubChem BioAssay data set” (2004)
